From article PMC8129133, “Polymer-free corticosteroid dimer implants for controlled and sustained drug delivery” (Nature Communications, 2021)
Where “and” joins values, the source holds several entries; their conditions need not be identical. Identical values can stand only once.

Experiment: Composition of pellets as made and after release
Assay type: physicochemical
Conditions: Supp Fig 5
Procedure: Release studies were carried out using different media, including PBS (pH 7.4, Gibco), 100% FBS (Sigma, F1051), 1% FBS in PBS pH 7.4, and 3.6% BSA (Sigma, A7906) in PBS (pH 7.4, Gibco). Sink conditions were maintained across all of the in vitro release studies through frequent buffer changes, ensuring that the released drug concentration was always at least five times lower than the solubility limit of the drug in the release buffer being used in order to avoid changes in release kinetics caused by drug levels approaching their saturation limit. Samples were incubated in release medium at 37 °C under constant agitation on an orbital shaker at 115 rpm (VWR). At designated timepoints, sampling was performed by complete removal of medium and replenishment with fresh buffer. Sampling timepoints included 24 h and then every 3–4 days thereafter. For PBS release conditions, samples were analyzed directly. For samples with protein (100% FBS, 1% FBS, 3.6% BSA), protein was precipitated by addition of acetonitrile. Samples were vortexed and centrifuged to separate extracted drug from precipitated protein. The supernatant was then analyzed for drug concentration by HPLC.
Supplementary Figure 5 Proportion of dexamethasone in different forms, namely Dex-TEG-Dex, Dex-TEG, and free Dex (Dex – dexamethasone, TEG – triethylene glycol) in heat-molded pellets as-made and […]
the dimer following submersion in release buffer for 14 days. N=4 samples for as made and N=3 samples for 14 days. Data represent the mean ± standard deviation.
(1 picture or pasted object on this page, not shown here)

[1] = pellets after release in 100% FBS, t=14d

In the case of `C[C@@H]1C[C@H]2[C@@H]3CCC4=CC(=O)C=C[C@]4(C)[C@@]3(F)[C@@H](O)C[C@]2(C)[C@@]1(O)C(=O)COC(=O)OCCOCCOCCOC(=O)OCC(=O)[C@@]1(O)[C@H](C)C[C@H]2[C@@H]3CCC4=CC(=O)C=C[C@]4(C)[C@@]3(F)[C@@H](O)C[C@@]21C` [Dex-TEG-Dex], the “Proportion of dexamethasone as Dex-TEG-Dex” value (heat-molded pellets as-made, t=0) is reported as 99.32 and 99.47 and 99.36 and 99.44, the “Proportion of dexamethasone as Dex-TEG” value [1] is reported as 0.046 and 0.04 and the “Proportion of dexamethasone as Dex-TEG-Dex” value [1] is reported as 99.38 and 99.32 and 99.44.
